Reference: the NIST ThermoML archive (doi:10.1016/j.jct.2011.04.008)
Numbers after ± are expanded uncertainties.

Assay: xn = mol fraction of the nth substance listed
Conditions: 101 kPa, Liquid; for viscosity: Capillary tube (Ostwald / Ubbelohde) method; for speed of sound: Linear variable-path acoustic interferometer; for mass density: Pycnometric method

CC(=O)OC(C)(C)C [1,1-dimethylethyl ethanoate] + Cc1ccccc1
Conditions | mass density, 298.15 K [kg/m3] | mass density, 308.15 K [kg/m3] | speed of sound, 298.15 K [m/s] | speed of sound, 308.15 K [m/s] | viscosity, 298.15 K [mPa·s] | viscosity, 308.15 K [mPa·s]
x1 = 0.0976 | 861.9 ± 0.5 | 851.9 ± 0.5 | 1275 ± 3 | 1232 ± 3 | 0.567 ± 0.007 | 0.502 ± 0.007
x1 = 0.1986 | 861.6 ± 0.5 | 851.2 ± 0.5 | 1242 ± 3 | 1197 ± 3 | 0.577 ± 0.007 | 0.509 ± 0.007
x1 = 0.2993 | 861.2 ± 0.5 | 850.5 ± 0.5 | 1213 ± 3 | 1168 ± 3 | 0.588 ± 0.007 | 0.516 ± 0.007
x1 = 0.3975 | 860.8 ± 0.5 | 849.9 ± 0.5 | 1187 ± 3 | 1143 ± 3 | 0.599 ± 0.007 | 0.524 ± 0.007
x1 = 0.4983 | 860.5 ± 0.5 | 849.4 ± 0.5 | 1165 ± 3 | 1120 ± 3 | 0.611 ± 0.007 | 0.533 ± 0.007
x1 = 0.5978 | 860.3 ± 0.5 | 848.9 ± 0.5 | 1145 ± 3 | 1101 ± 3 | 0.623 ± 0.007 | 0.542 ± 0.007
x1 = 0.6975 | 860.2 ± 0.5 | 848.7 ± 0.5 | 1128 ± 3 | 1085 ± 3 | 0.636 ± 0.008 | 0.553 ± 0.007
x1 = 0.7972 | 860.3 ± 0.5 | 848.7 ± 0.5 | 1113 ± 3 | 1072 ± 3 | 0.65 ± 0.008 | 0.565 ± 0.007
x1 = 0.8987 | 860.6 ± 0.5 | 848.9 ± 0.5 | 1101 ± 3 | 1062 ± 3 | 0.666 ± 0.008 | 0.58 ± 0.008
x1 = 1 | 861.1 ± 0.5 | 849.4 ± 0.5 | 1092 ± 3 | 1055 ± 3 | 0.683 ± 0.008 | 0.596 ± 0.008

CCc1ccccc1 [ethylbenzene] + CC(=O)OC(C)(C)C
x2 = 0
Conditions | mass density [kg/m3] | speed of sound [m/s] | viscosity [mPa·s]
298.15 K | 864.4 ± 0.5 | 1325 ± 3 | 0.631 ± 0.008
308.15 K | 855.4 ± 0.5 | 1280 ± 3 | 0.569 ± 0.008

CC(=O)OC(C)(C)C [1,1-dimethylethyl ethanoate] + c1ccccc1
Conditions | mass density, 298.15 K [kg/m3] | mass density, 308.15 K [kg/m3] | speed of sound, 298.15 K [m/s] | speed of sound, 308.15 K [m/s] | viscosity, 298.15 K [mPa·s] | viscosity, 308.15 K [mPa·s]
x1 = 0.0987 | 870.6 ± 0.5 | 859.3 ± 0.5 | 1254 ± 3 | 1215 ± 3 | 0.613 ± 0.007 | 0.54 ± 0.007
x1 = 0.1999 | 868.5 ± 0.5 | 856.8 ± 0.5 | 1220 ± 3 | 1179 ± 3 | 0.618 ± 0.007 | 0.542 ± 0.007
x1 = 0.299 | 866.7 ± 0.5 | 854.9 ± 0.5 | 1192 ± 3 | 1150 ± 3 | 0.623 ± 0.007 | 0.544 ± 0.007
x1 = 0.3982 | 865.3 ± 0.5 | 853.2 ± 0.5 | 1169 ± 3 | 1127 ± 3 | 0.629 ± 0.007 | 0.548 ± 0.007
x1 = 0.498 | 864.1 ± 0.5 | 851.9 ± 0.5 | 1149 ± 3 | 1107 ± 3 | 0.636 ± 0.007 | 0.552 ± 0.007
x1 = 0.5995 | 863 ± 0.5 | 850.8 ± 0.5 | 1133 ± 3 | 1091 ± 3 | 0.643 ± 0.008 | 0.558 ± 0.007
x1 = 0.6996 | 862.3 ± 0.5 | 850 ± 0.5 | 1120 ± 3 | 1079 ± 3 | 0.651 ± 0.008 | 0.565 ± 0.007
x1 = 0.7999 | 861.7 ± 0.5 | 849.5 ± 0.5 | 1109 ± 3 | 1068 ± 3 | 0.661 ± 0.008 | 0.574 ± 0.007
x1 = 0.8993 | 861.3 ± 0.5 | 849.4 ± 0.5 | 1099 ± 3 | 1060 ± 3 | 0.671 ± 0.008 | 0.584 ± 0.008
x1 = 1 | 861.1 ± 0.5 | 849.4 ± 0.5 | 1092 ± 3 | 1055 ± 3 | 0.683 ± 0.008 | 0.596 ± 0.008

c1ccccc1 [benzene] + CC(=O)OC(C)(C)C
x2 = 0
Conditions | mass density [kg/m3] | speed of sound [m/s] | viscosity [mPa·s]
298.15 K | 873 ± 0.5 | 1296 ± 3 | 0.609 ± 0.007
308.15 K | 862 ± 0.5 | 1260 ± 3 | 0.539 ± 0.007

CC(=O)OC(C)(C)C [1,1-dimethylethyl ethanoate] + CCc1ccccc1
Conditions | mass density, 298.15 K [kg/m3] | mass density, 308.15 K [kg/m3] | speed of sound, 298.15 K [m/s] | speed of sound, 308.15 K [m/s] | viscosity, 298.15 K [mPa·s] | viscosity, 308.15 K [mPa·s]
x1 = 0.0979 | 863.9 ± 0.5 | 854.7 ± 0.5 | 1287 ± 3 | 1245 ± 3 | 0.635 ± 0.008 | 0.571 ± 0.008
x1 = 0.1974 | 863.3 ± 0.5 | 853.9 ± 0.5 | 1254 ± 3 | 1214 ± 3 | 0.639 ± 0.008 | 0.573 ± 0.008
x1 = 0.2989 | 862.6 ± 0.5 | 852.9 ± 0.5 | 1224 ± 3 | 1186 ± 3 | 0.641 ± 0.008 | 0.573 ± 0.008
x1 = 0.3983 | 861.9 ± 0.5 | 852 ± 0.5 | 1198 ± 3 | 1161 ± 3 | 0.644 ± 0.008 | 0.574 ± 0.008
x1 = 0.4976 | 861.3 ± 0.5 | 851.1 ± 0.5 | 1176 ± 3 | 1139 ± 3 | 0.647 ± 0.008 | 0.575 ± 0.008
x1 = 0.5986 | 860.7 ± 0.5 | 850.3 ± 0.5 | 1155 ± 3 | 1119 ± 3 | 0.651 ± 0.008 | 0.576 ± 0.008
x1 = 0.6977 | 860.4 ± 0.5 | 849.7 ± 0.5 | 1137 ± 3 | 1101 ± 3 | 0.656 ± 0.008 | 0.579 ± 0.008
x1 = 0.7979 | – | 849.3 ± 0.5 | 1121 ± 3 | 1085 ± 3 | 0.663 ± 0.008 | 0.582 ± 0.008
x1 = 0.8978 | 860.5 ± 0.5 | 849.2 ± 0.5 | 1106 ± 3 | 1069 ± 3 | 0.671 ± 0.008 | 0.588 ± 0.008
x1 = 1 | 861.1 ± 0.5 | 849.4 ± 0.5 | 1092 ± 3 | 1055 ± 3 | 0.683 ± 0.008 | 0.596 ± 0.008

Cc1ccccc1 [toluene] + CC(=O)OC(C)(C)C
x2 = 0
Conditions | mass density [kg/m3] | speed of sound [m/s] | viscosity [mPa·s]
298.15 K | 862.2 ± 0.5 | 1312 ± 3 | 0.556 ± 0.007
308.15 K | 852.5 ± 0.5 | 1270 ± 3 | 0.494 ± 0.007
